The values that follow come from ChEMBL document CHEMBL2375223, “Disulfide linked pyrazole derivatives inhibit phagocytosis of opsonized blood cells” (Bioorg Med Chem Lett, 2013).

Activity calls are given as the source filed them. The rule behind the calls is not given here.

The target of test [1] is High affinity immunoglobulin gamma Fc receptor I (Homo sapiens) (UniProt P12314). The experiment in a line: Inhibition of FCgamma receptor in human PBMC assessed as inhibition of opsonized RBC phagocytosis at 5 uM incubated for 1 hr prior to RBC addition measured after 2 hrs by monocyte monolayer assay relative to control.
Another test deals with PBMC. The experiment in a line: Induction of apoptosis in human PBMC at 5 uM assessed as apoptotic index after 1 hr by Annexin V-APC/propidium iodide staining-based FACS analysis relative to IVIG. The test is classed as functional. In general terms: Flow cytometry measures light scatter and fluorescence of single cells or particles in a stream.
Test [2] concerns the target High affinity immunoglobulin gamma Fc receptor I (Homo sapiens) (UniProt P12314). The experiment in a line: Inhibition of FCgamma receptor in human PBMC assessed as inhibition of opsonized RBC phagocytosis at 1 mM incubated for 1 hr prior to RBC addition measured after 2 hrs by monocyte monolayer assay relative to control.

Chain of High affinity immunoglobulin gamma Fc receptor I (Homo sapiens) (P12314 whole entry): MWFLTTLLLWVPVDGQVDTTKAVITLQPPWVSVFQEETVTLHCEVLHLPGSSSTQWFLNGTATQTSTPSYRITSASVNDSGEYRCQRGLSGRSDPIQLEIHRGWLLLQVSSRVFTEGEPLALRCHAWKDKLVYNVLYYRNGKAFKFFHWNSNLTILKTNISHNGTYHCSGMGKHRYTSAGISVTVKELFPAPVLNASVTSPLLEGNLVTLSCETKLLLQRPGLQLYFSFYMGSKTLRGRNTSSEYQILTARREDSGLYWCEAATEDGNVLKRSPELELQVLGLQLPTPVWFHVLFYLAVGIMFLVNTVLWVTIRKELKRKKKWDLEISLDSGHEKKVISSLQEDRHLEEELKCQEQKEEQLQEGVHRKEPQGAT

Usually inhibition stands for the drop in the measured response relative to a control, in per cent. As for `Cc1nn(-c2ccccc2)c(S)c1C(=O)c1ccno1`, the inhibition result in test [1] is “inactive”.
Turning to `Cc1nn(-c2ccccc2)c(SSc2c(C(=O)N3CCOCC3)c(C)nn2-c2ccccc2)c1C(=O)N1CCOCC1`, in the test with PBMC, the “fold change (FC)” value is listed as 1.88. In addition, the inhibition in test [1] was determined as 20%.
For `Cc1cc(SSc2cc(C)nn2-c2ccccc2)n(-c2ccccc2)n1`, in that order: 2.78 and 43%.
In the case of `Cc1nn(-c2ccccc2)c(SSc2c(C(=O)c3cccs3)c(C)nn2-c2ccccc2)c1C(=O)c1cccs1`, the “fold change (FC)” value in the test on PBMC is on record as 0.69. Besides, the inhibition in test [1] amounted to 19%.
For `Cc1nn(-c2ccccc2)c(SSc2c(C(=O)N3CCCCC3)c(C)nn2-c2ccccc2)c1C(=O)N1CCCCC1`, in the test with PBMC, the “fold change (FC)” value stood at 1.87. Also, the inhibition in test [1] was 34%.
With `Cc1nn(-c2ccccc2)c(S)c1C(=O)c1ccccc1`, in the test on PBMC, the “fold change (FC)” value was found to be 1.29. Also, in test [1], the inhibition came out at 0%. In addition, the inhibition entry in test [2] is “inactive”.
Consider `Cc1nn(-c2ccccc2)c(SSc2c(C(=O)c3ccccc3)c(C)nn2-c2ccccc2)c1C(=O)c1ccccc1`, for which, in the test with PBMC, the “fold change (FC)” value is 1.04. Besides, in test [1], the inhibition turned out to be 22%.
